US10131652B2, “Pyrimidinyloxy benzene derivatives as herbicides” (E. I. DU PONT DE NEMOURS AND COMPANY, priority 2014, dated 2018)

What was measured:
Type in all cases: in vivo
[1] = system: pigweed (Amaranthus retroflexus); test: Test D pre-/postemergence plant response; conditions: Postemergence
In short: (§1)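 Visual injury scoring (0–100) at 13 to 15 days in greenhouse. Preemergence sprays on seeded loam/sand; postemergence sprays on 1–4 leaf plants.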

[2] = system: Italian ryegrass (Lolium multiflorum); test: Test D pre-/postemergence plant response; conditions: Postemergence
In short: as §1

[3] = system: large (Lg) crabgrass (Digitaria sanguinalis); test: Test D pre-/postemergence plant response; conditions: Postemergence; for Plant response rating, Crabgrass, Large: scale 0 to 100, 0 no effect, 100 complete control
In short: as §1

[4] = system: waterhemp (common waterhemp, Amaranthus rudis); test: Test D pre-/postemergence plant response; conditions: Postemergence
In short: as §1

corn (Zea mays) = test: Test D pre-/postemergence plant response; conditions: Postemergence; for Plant response rating, Corn: scale 0 to 100, 0 no effect, 100 complete control
In short: as §1

[5] = system: lambsquarters (Chenopodium album); test: Test D pre-/postemergence plant response; conditions: Postemergence
In short: as §1

[6] = system: barnyardgrass (Echinochloa crus-galli); test: Test D pre-/postemergence plant response; conditions: Postemergence; for Plant response rating, Barnyardgrass: scale 0 to 100, 0 no effect, 100 complete control
In short: as §1

[7] = system: blackgrass (Alopecurus myosuroides); test: Test D pre-/postemergence plant response; conditions: Postemergence; for Plant response rating, Blackgrass: scale 0 to 100, 0 no effect, 100 complete control
In short: as §1

[8] = system: morningglory (Ipomoea coccinea); test: Test D pre-/postemergence plant response; conditions: Postemergence
In short: as §1

[9] = system: velvetleaf (Abutilon theophrasti); test: Test D pre-/postemergence plant response; conditions: Postemergence
In short: as §1

[10] = system: giant foxtail (Setaria faberii); test: Test D pre-/postemergence plant response; conditions: Postemergence; for Plant response rating, Foxtail, Giant: scale 0 to 100, 0 no effect, 100 complete control
In short: as §1

soybean (Glycine max) = test: Test D pre-/postemergence plant response; conditions: Postemergence
In short: as §1

[11] = system: ragweed (common ragweed, Ambrosia elatior); test: Test B pre-/postemergence plant response
In short: (§2)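 Visual injury rating, 0 (no effect) to 100 (complete control), vs untreated controls after ~10 d greenhouse. Pre: directed soil spray after planting in loam/sand. Post: plants 2–10 cm, 1–2 leaf stage. Compound in non-phytotoxic solvent plus surfactant.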

[12] = system: Italian ryegrass (Lolium multiflorum); test: Test B pre-/postemergence plant response
In short: as §2

kochia (Kochia scoparia) = test: Test B pre-/postemergence plant response
In short: as §2

[13] = 31 g ai/ha, scale 0 to 100 (0 no effect, 100 complete control)
[14] = 62 g ai/ha, scale 0 to 100, 0 no effect, 100 complete control
[15] = 125 g ai/ha, scale 0 to 100, 0 no effect, 100 complete control
[16] = 31 g ai/ha, Preemergence, 0 to 100 scale where 0 is no effect and 100 is complete control
[17] = 125 g ai/ha, postemergence, 0 to 100 scale, 0 no effect, 100 complete control
[18] = Postemergence, 31 g ai/ha, 0 to 100 scale (0 no effect, 100 complete control)
[19] = Preemergence, 125 g ai/ha, 0 to 100 scale (0 no effect, 100 complete control)

SMILES: Fc1cccc(Oc2ncc(Cl)cn2)c1-c1cc(C(F)(F)F)no1 [Compound 228]
- Plant response rating (scale 0 to 100), Pigweed ([1]; 16 g ai/ha): 85
- Pigweed plant response rating [1, 13]: 95
- Pigweed plant response rating [1, 14]: 95
- Plant response rating, Pigweed [1, 15]: 98
- Plant response rating (scale 0 to 100), Ryegrass, Italian ([2]; 16 g ai/ha): 0
- Ryegrass, Italian plant response rating [2, 13]: 5
- Ryegrass, Italian plant response rating [2, 14]: 15
- Plant response rating, Ryegrass, Italian [2, 15]: 25
- Plant response rating (scale 0 to 100), Crabgrass, Large ([3]; 16 g ai/ha): 15
- Crabgrass, Large plant response rating [3, 13]: 20
- Plant response rating, Crabgrass, Large ([3]; 62 g ai/ha): 35
- Plant response rating, Crabgrass, Large ([3]; 125 g ai/ha): 45
- Plant response rating (scale 0 to 100), Waterhemp ([4]; 16 g ai/ha): 90
- Waterhemp plant response rating [4, 13]: 95
- Waterhemp plant response rating [4, 14]: 95
- Plant response rating, Waterhemp [4, 15]: 100
- Plant response rating (scale 0 to 100), Corn (corn (Zea mays); 16 g ai/ha): 5
- Corn plant response rating (corn (Zea mays); [13]): 10
- Plant response rating, Corn (corn (Zea mays); 62 g ai/ha): 10
- Plant response rating, Corn (corn (Zea mays); 125 g ai/ha): 10
- Plant response rating (scale 0 to 100), Lambsquarters ([5]; 16 g ai/ha): 85
- Lambsquarters plant response rating [5, 13]: 85
- Lambsquarters plant response rating [5, 14]: 90
- Plant response rating, Lambsquarters [5, 15]: 95
- Plant response rating (scale 0 to 100), Barnyardgrass ([6]; 16 g ai/ha): 15
- Barnyardgrass plant response rating [6, 13]: 20
- Plant response rating, Barnyardgrass ([6]; 62 g ai/ha): 20
- Plant response rating, Barnyardgrass ([6]; 125 g ai/ha): 35
- Plant response rating (scale 0 to 100), Blackgrass ([7]; 16 g ai/ha): 15
- Blackgrass plant response rating [7, 13]: 15
- Plant response rating, Blackgrass ([7]; 62 g ai/ha): 25
- Plant response rating, Blackgrass ([7]; 125 g ai/ha): 35
- Plant response rating (scale 0 to 100), Morningglory ([8]; 16 g ai/ha): 65
- Morningglory plant response rating [8, 13]: 65
- Morningglory plant response rating [8, 14]: 80
- Plant response rating, Morningglory [8, 15]: 75
- Plant response rating (scale 0 to 100), Velvetleaf ([9]; 16 g ai/ha): 35
- Velvetleaf plant response rating [9, 13]: 40
- Velvetleaf plant response rating [9, 14]: 65
- Plant response rating, Velvetleaf [9, 15]: 80
- Plant response rating (scale 0 to 100), Foxtail, Giant ([10]; 16 g ai/ha): 10
- Foxtail, Giant plant response rating [10, 13]: 10
- Plant response rating, Foxtail, Giant ([10]; 62 g ai/ha): 20
- Plant response rating, Foxtail, Giant ([10]; 125 g ai/ha): 40
- Plant response rating (scale 0 to 100), Soybean (soybean (Glycine max); 16 g ai/ha): 60
- Soybean plant response rating (soybean (Glycine max); [13]): 55
- Soybean plant response rating (soybean (Glycine max); [14]): 80
- Plant response rating, Soybean (soybean (Glycine max); [15]): 80
- Plant response rating, Ragweed [11, 16]: 0
- Plant response rating, Ragweed [11, 17]: 40
- Plant response rating, Ragweed [11, 18]: 30
- Ragweed plant response rating [11, 19]: 30
- Plant response rating, Ryegrass, Italian [12, 16]: 30
- Plant response rating, Ryegrass, Italian [12, 17]: 90
- Plant response rating, Ryegrass, Italian [12, 18]: 20
- Ryegrass, Italian plant response rating [12, 19]: 70
- Plant response rating, Kochia (kochia (Kochia scoparia); [16]): 70
- Plant response rating, Kochia (kochia (Kochia scoparia); [17]): 100
- Plant response rating, Kochia (kochia (Kochia scoparia); [18]): 100
- Kochia plant response rating (kochia (Kochia scoparia); [19]): 100
